We go through six molecules from the supplement of paper PMC11061612.

Common to all, as to test: Bliss excess, mean over the matrix (fraction); higher = more synergy
Assay [1] deals with SK-OV-3 (Ovarian Carcinoma). Put shortly: (§1)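 Cell lines in DMEM/F12 or RPMI with 10% FBS were plated in 1536-well plates, held 24 hours at 37°C, 5% CO2, then given two-drug dose matrices for 72 hours (DMSO typically 0.2%). Viability was read by CellTiter-Glo 2.0 luminescence and scaled as inhibition from 0 (vehicle wells) to 1 (blank wells). Combination Emax is the second-highest inhibition in the matrix; Bliss excess is observed combination effect minus expected EA + EB − EA·EB, EA and EB being single-agent effects.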

Assay [2] concerns NCI-H2461 (Mesothelioma). Put shortly:
as §1

The test system of assay [3] is NCI-H69 (Small Cell Lung Carcinoma). Put shortly: as §1
In assay [4] the test system is 8305C (Thyroid Gland Carcinoma). Put shortly: as §1
The subject of assay [5] is K5 (Thyroid Gland Carcinoma). Put shortly: as §1
Assay [6] concerns COLO-829 (Melanoma). Put shortly: as §1
The subject of assay [7] is HDLM-2 (Hodgkin's Lymphoma). Put shortly:
as §1

Assay [8] relates to HO-1-u-1 (Oral Cavity Carcinoma). Put shortly:
as §1

The test system of assay [9] is SW1116 (Colorectal Carcinoma). Put shortly: as §1
Assay [10] has as its system Mewo (Melanoma). Put shortly:
as §1

Assay [11] relates to CAPAN-1 (Pancreatic Carcinoma). Put shortly:
as §1

The subject of assay [12] is KARPAS-231 (B-Cell Non-Hodgkin's Lymphoma). Put shortly: as §1
In assay [13] the test system is SUP-T1 (T-Lymphoblastic Leukemia). Put shortly:
as §1

The test system of assay [14] is HARA (Squamous Cell Lung Carcinoma). Put shortly:
as §1

Assay [15] relates to RPMI-6666 (Non-Cancerous). Put shortly:
as §1

The subject of assay [16] is MDA-MB-468 (Breast Carcinoma). Put shortly:
as §1

The test system of assay [17] is SU-DHL-6 (B-Cell Non-Hodgkin's Lymphoma). Put shortly: as §1
The test system of assay [18] is Hs-633T (Other Solid Carcinomas). Put shortly: as §1
Assay [19] concerns HMV-II (Melanoma). Put shortly:
as §1

Assay [20] has as its system CAL-54 (Kidney Carcinoma). Put shortly: as §1

The structures appear in SMILES notation.

Consider `CCN(CCO)CCCOc1ccc2c(Nc3cc(CC(=O)Nc4cccc(F)c4)[nH]n3)ncnc2c1` [AZD2811] + C=CCn1c(=O)c2cnc(Nc3ccc(N4CCN(C)CC4)cc3)nc2n1-c1cccc(C(C)(C)O)n1 [AZD1775] (first compound max 1 µM, partner max 1 µM), for which the Bliss excess in assay [1] is -0.068; in assay [2] it was -0.0679; in [3], -0.0671; in [4], -0.0355; in assay [5], -0.0062; in assay [6] it was 0.0009. Further, the Bliss excess in assay [7] was 0.0252; in [8] it was -0.0168; in [9], -0.0275; in assay [10], -0.011; in assay [11] it was -0.0733; in [12] it was 0.0395. Further, the Bliss excess was 0.0302 in [13]; -0.0086 in assay [14]; -0.0271 in assay [15]; 0.0205 in [16]; 0.0537 in assay [17]; -0.008 in assay [18]. In addition, the results for the Bliss excess in assay [19] and in assay [20] were -0.0339 and -0.032, respectively.
As to `CC1(C)CCC(CN2CCN(c3ccc(C(=O)NS(=O)(=O)c4ccc(NCC5CCOCC5)c([N+](=O)[O-])c4)c(Oc4cnc5[nH]ccc5c4)c3)CC2)=C(c2ccc(Cl)cc2)C1` [Venetoclax] + CN(C)CCCOc1ccc(-c2ccc3ncc4c(c3c2)n(C2CCOCC2)c(=O)n4C)cn1 [AZD0156] (first compound max 1 µM, 7x7, partner max 1 µM), the Bliss excess in [1] was -0.0637; in assay [2], -0.0535; in [3], 0.002; in assay [4], -0.0626; in assay [5], -0.0635; in assay [6] it was -0.0264. Also, the Bliss excess is -0.0015 in assay [7]; -0.003 in assay [8]; -0.0409 in assay [9]; -0.0483 in [10]; -0.0696 in [11]; -0.0599 in assay [12]. Moreover, the Bliss excess was -0.0294 in [13]; -0.0121 in assay [14]; -0.0231 in [15]; -0.0294 in assay [16]; 0.036 in assay [17]; -0.0023 in assay [18]. Also, the Bliss excess in assay [19] was 0.0134; in assay [20] it was -0.0085.
As to `COc1cccc2c1C(=O)c1c(O)c3c(c(O)c1C2=O)C[C@@](O)(C(=O)CO)C[C@@H]3O[C@H]1C[C@H](N)[C@H](O)[C@H](C)O1` [Doxorubicin] + Cc1cc2ncnn2cc1Nc1ncc2c(n1)n(C1CCOCC1)c(=O)n2C [AZD7648] (first compound max 1 µM, 7x7, partner max 10 µM), the Bliss excess is -0.0049 in assay [1]; -0.0108 in assay [2]; 0.0064 in [3]; -0.0023 in [4]; 0.0319 in [5]; 0.0212 in assay [6]. Moreover, the Bliss excess is 0.0106 in assay [7]; 0.0091 in assay [8]; -0.0046 in assay [9]; 0.0082 in assay [10]; 0.0038 in assay [11]; 0.0522 in assay [12]. For the same molecule, the Bliss excess in assay [13] is 0.0368; in [14] it was 0.0915; in [15], 0.103; in assay [16] it was 0.0309; in [17], 0.0697; in assay [18], 0.118. The Bliss excess in assay [19] stood at 0.062; in [20], 0.0594.
For `CN(CCO)CC[C@H](CSc1ccccc1)Nc1ccc(S(=O)(=O)NC(=O)c2ccc(N3CCC([C@@H](O)c4ccccc4-c4ccc(Cl)cc4)CC3)cc2)cc1S(=O)(=O)C(F)(F)F` [AZD4320] + Cc1cc2ncnn2cc1Nc1ncc2c(n1)n(C1CCOCC1)c(=O)n2C [AZD7648] (first compound max 1 µM, 7x7, partner max 10 µM), the Bliss excess in assay [1] was -0.063; in [2], -0.0484; in assay [3] it was -0.0474; in [4] it was 0.0242; in assay [5] it was -0.0105; in assay [6] it was -0.04. The Bliss excess in [7] is -0.0018; in assay [8], -0.0172; in [9], -0.0359; in assay [10], -0.0104; in assay [11], -0.0508; in assay [12], 0.036. Further, the Bliss excess in [13] is -0.0222; in [14], -0.0133; in assay [15] it was 0.0311; in [16], -0.0012; in [17], -0.0099; in assay [18], 0.0109. For the same molecule, the Bliss excess was -0.0718 in assay [19] and -0.0122 in assay [20].
With `NC1(C(=O)N[C@@H](CCO)c2ccc(Cl)cc2)CCN(c2ncnc3[nH]ccc23)CC1` [Capivasertib] + C[C@@H]1COCCN1C2=NC(=NC(=C2)C3(CC3)[S@](=N)(=O)C)C4=C5C=CNC5=NC=C4 [AZD6738] (first compound max 10 µM, 7x7, partner max 10 µM), the Bliss excess in assay [1] was -0.0456; in [2] it was -0.0866; in [3] it was -0.0397; in assay [4], -0.0308; in assay [5], -0.0693; in assay [6] it was 0.0403. The Bliss excess in [7] is -0.0451; in assay [8] it was -0.0167; in assay [9] it was -0.011; in [10], -0.0968; in [11], -0.0423; in assay [12] it was -0.0334. The Bliss excess was -0.0503 in assay [13]; -0.0719 in assay [14]; -0.118 in [15]; -0.0652 in assay [16]; 0.0023 in [17]; -0.0002 in assay [18]. Moreover, the figures for the Bliss excess in assay [19] and in assay [20] were -0.0717 and -0.0374, respectively.
For `CN(C)CCCOc1ccc(-c2ccc3ncc4c(c3c2)n(C2CCOCC2)c(=O)n4C)cn1` [AZD0156] + O=C(c1cc(Cc2n[nH]c(=O)c3ccccc23)ccc1F)N1CCN(C(=O)C2CC2)CC1 [Olaparib] (first compound max 3 µM, partner max 3 µM), the Bliss excess was -0.0179 in [1]; -0.0194 in [2]; 0.0386 in [3]; -0.014 in [4]; 0.0542 in assay [5]; -0.0578 in assay [6]. The Bliss excess in [7] was 0.0319; in assay [8], 0.0795; in [9], -0.0431; in assay [10], -0.0711; in [11] it was -0.0864; in [12], 0.0651. The Bliss excess in assay [13] was 0.0598; in [14], 0.0504; in assay [15] it was 0.119; in assay [16] it was 0.0645; in assay [17], 0.125; in assay [18] it was 0.17. Further, the figures for the Bliss excess in assay [19] and in [20] were -0.0287 and 0.034, respectively.
